Assay results from patent publication US10047051B2, “Substituted pyridines and method of use” (AbbVie S.á{acute over (.)}r.l., priority 2015, dated 2018).

Columns and labels:
CFTR G551D mutant = target: T1, CFTR G551D mutant (Homo sapiens, UniProt P13569, G551D); experiment: YFP-halide influx assay for the CFTR-G551D mutation (HEK293 cells); format: cell-based; conditions: forskolin 10.67 μM
T1 construct: expressed in transfected cells; host or cells: HEK293 cells, reverse transfection with plasmids
In short: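 HEK293 cells reverse-transfected with CFTR G551D and halide-sensitive YFP (H148Q/I152L/F47L), expressed 24 h at 37 °C. YFP fluorescence quenching recorded for 7 s after I⁻ injection. Response = 1−F/F0; EC50 derived from 1−F/F0 vs compound concentration.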

CFTR ΔF508 mutant = target: T2, CFTR ΔF508 mutant (Homo sapiens, UniProt P13569, DEL508-508); experiment: YFP-halide influx assay for the CFTR-ΔF508 mutation (CFBE41o- cells); format: cell-based; conditions: forskolin 10.67 μM; for EC50: from (1−F/F0) vs concentration plot
T2 construct: expressed in transfected cells; host or cells: CFBE41o- cells, adenoviral transduction
In short: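 CFBE41o- cells transduced with adenovirus expressing CFTR ΔF508 and halide-sensitive YFP H148Q/I152L/F47L, then held 24 h at 27° C or with a CFTR modulator 24 h at 37° C. Iodide-induced quench recorded 2 min; EC50 from (1−F/F0) at 36 s versus concentration.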

T2 sequence (P13569 with tags, fused parts or gaps DEL508-508): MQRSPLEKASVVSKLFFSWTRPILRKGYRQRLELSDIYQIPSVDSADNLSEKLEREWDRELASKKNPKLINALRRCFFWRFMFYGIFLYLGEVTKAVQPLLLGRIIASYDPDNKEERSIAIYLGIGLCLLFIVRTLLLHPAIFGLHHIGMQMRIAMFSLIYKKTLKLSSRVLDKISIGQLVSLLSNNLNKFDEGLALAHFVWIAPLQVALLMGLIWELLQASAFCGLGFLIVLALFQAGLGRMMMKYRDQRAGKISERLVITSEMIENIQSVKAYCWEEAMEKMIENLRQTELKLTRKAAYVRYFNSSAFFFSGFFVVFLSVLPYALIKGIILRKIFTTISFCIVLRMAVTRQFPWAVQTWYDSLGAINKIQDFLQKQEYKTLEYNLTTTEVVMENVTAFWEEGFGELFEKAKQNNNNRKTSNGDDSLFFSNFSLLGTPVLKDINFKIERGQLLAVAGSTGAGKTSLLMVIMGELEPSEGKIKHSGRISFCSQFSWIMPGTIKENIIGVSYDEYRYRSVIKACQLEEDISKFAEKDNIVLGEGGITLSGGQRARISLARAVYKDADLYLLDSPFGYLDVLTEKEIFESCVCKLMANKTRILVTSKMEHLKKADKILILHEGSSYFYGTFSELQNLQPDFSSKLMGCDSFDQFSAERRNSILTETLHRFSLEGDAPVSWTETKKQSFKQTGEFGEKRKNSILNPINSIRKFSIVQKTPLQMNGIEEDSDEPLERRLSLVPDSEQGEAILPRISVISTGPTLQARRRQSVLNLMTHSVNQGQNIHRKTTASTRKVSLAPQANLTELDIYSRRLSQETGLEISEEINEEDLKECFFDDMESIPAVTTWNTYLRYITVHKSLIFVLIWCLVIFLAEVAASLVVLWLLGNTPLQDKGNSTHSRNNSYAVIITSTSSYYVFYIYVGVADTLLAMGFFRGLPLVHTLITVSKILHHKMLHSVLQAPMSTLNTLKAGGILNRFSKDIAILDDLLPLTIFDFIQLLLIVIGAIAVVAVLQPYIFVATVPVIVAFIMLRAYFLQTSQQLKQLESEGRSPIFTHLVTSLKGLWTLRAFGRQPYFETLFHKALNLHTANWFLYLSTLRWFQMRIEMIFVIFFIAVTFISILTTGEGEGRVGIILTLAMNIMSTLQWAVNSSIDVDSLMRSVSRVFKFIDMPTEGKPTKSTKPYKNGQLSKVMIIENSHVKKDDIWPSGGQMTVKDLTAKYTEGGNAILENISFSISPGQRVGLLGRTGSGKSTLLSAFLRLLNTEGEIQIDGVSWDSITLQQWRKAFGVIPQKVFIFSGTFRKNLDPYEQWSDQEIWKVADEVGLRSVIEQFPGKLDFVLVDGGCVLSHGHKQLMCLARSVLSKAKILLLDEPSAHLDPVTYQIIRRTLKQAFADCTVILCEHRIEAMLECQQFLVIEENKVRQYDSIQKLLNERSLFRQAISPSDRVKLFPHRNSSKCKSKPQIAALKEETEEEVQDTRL
T1 sequence (P13569 whole entry G551D): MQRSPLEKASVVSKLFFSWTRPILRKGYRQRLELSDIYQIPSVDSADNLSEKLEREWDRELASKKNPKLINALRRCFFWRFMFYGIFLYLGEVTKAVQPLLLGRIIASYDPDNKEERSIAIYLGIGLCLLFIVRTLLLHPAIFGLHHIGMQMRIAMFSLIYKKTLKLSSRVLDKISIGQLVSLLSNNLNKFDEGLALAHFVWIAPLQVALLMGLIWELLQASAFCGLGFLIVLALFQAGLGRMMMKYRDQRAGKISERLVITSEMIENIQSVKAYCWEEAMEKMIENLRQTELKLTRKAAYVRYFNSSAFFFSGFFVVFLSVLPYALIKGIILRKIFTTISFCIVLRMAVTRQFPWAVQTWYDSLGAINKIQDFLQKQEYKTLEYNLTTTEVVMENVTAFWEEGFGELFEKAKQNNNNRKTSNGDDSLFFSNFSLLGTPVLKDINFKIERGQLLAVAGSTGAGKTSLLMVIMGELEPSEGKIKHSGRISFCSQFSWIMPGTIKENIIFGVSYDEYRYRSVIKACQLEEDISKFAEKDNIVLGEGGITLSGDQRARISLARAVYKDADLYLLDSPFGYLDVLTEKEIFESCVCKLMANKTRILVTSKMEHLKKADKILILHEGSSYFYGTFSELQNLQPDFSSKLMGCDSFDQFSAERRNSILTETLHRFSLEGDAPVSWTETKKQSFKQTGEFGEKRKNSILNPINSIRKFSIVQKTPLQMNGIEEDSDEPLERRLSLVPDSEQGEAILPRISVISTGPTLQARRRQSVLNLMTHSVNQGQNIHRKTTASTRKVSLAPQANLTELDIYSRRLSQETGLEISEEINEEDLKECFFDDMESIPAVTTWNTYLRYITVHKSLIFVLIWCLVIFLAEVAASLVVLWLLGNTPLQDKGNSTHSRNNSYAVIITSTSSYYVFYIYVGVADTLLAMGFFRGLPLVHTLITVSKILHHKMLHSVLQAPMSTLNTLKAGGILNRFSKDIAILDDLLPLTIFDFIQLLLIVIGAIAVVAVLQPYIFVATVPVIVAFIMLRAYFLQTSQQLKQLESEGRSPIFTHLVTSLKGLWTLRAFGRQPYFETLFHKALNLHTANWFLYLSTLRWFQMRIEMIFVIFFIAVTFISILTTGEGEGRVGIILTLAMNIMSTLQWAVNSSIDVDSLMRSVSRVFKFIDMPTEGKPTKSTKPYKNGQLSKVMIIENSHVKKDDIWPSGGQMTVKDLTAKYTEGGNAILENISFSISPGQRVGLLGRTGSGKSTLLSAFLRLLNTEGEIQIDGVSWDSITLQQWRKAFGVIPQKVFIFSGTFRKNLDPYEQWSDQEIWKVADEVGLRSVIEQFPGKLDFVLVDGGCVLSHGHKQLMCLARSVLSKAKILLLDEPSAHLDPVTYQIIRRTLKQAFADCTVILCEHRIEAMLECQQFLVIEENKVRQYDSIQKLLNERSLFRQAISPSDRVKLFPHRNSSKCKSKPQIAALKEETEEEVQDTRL

Row | Compound | % Activation (CFTR G551D mutant) | EC50 (CFTR G551D mutant) | % Activation (CFTR ΔF508 mutant) | EC50 (CFTR ΔF508 mutant)
1 | CCS(=O)(=O)c1cc(N)c(C(=O)NC[C@H](C)O)nc1C1CC1 [Compound 275, 3-amino-6-cyclopropyl-5-(ethylsulfonyl)-N-[(2S)-2-hydroxypropyl]pyridine-2-carboxamide] | 4.2% | > 10000 nM | 68.5% | > 667 nM
2 | Nc1cc(S(=O)(=O)c2ccc(OC(F)(F)F)cc2)cnc1C(=O)NCC(O)C(F)F (stereo not shown) [Compound 279, 3-amino-N-(3,3-difluoro-2-hydroxypropyl)-5-{[4-(trifluoromethoxy)phenyl]sulfonyl}pyridine-2-carboxamide] | 57.2% | 662 nM | 113.0% | 1.7 nM
3 | COc1nc(C(=O)NC[C@H](C)O)c(N)cc1S(=O)(=O)c1ccc(OC(F)(F)F)cc1 [Compound 280, 3-amino-N-[(2S)-2-hydroxypropyl]-6-methoxy-5-{[4-(trifluoromethoxy)phenyl]sulfonyl}pyridine-2-carboxamide] | 57.6% | 1160 nM | 111.0% | 2.9 nM
4 | COc1ccnc(CNC(=O)c2ncc(S(=O)(=O)N3CCC[C@@H]3C)cc2N)n1 [Compound 281, 3-amino-N-[(4-methoxypyrimidin-2-yl)methyl]-5-{[(2S)-2-methylpyrrolidin-1-yl]sulfonyl}pyridine-2-carboxamide] | 50.0% | > 3330 nM | 89.4% | 167 nM
5 | C[C@H](O)CNC(=O)c1nc(N(C)C)c(S(=O)(=O)c2ccc(OC(F)(F)F)cc2)cc1N [Compound 283, 3-amino-6-(dimethylamino)-N-[(2S)-2-hydroxypropyl]-5-{[4-(trifluoromethoxy)phenyl]sulfonyl}pyridine-2-carboxamide] | 96.5% | 2620 nM | 93.3% | 5.1 nM
6 | C[C@H](O)CNC(=O)c1nc(NC2CC2)c(S(=O)(=O)c2ccc(OC(F)(F)F)cc2)cc1N [Compound 285, 3-amino-6-(cyclopropylamino)-N-[(2S)-2-hydroxypropyl]-5-{[4-(trifluoromethoxy)phenyl]sulfonyl}pyridine-2-carboxamide] | 52.5% | 776 nM | 86.7% | 4.2 nM
7 | COCC(=O)NNC(=O)c1ncc(S(=O)(=O)c2ccc(OC(F)(F)F)cc2)cc1N [Compound 286, 3-amino-N′-(methoxyacetyl)-5-{[4-(trifluoromethoxy)phenyl]sulfonyl}pyridine-2-carbohydrazide] | 26.8% |  | 79.7% | 88.1 nM
8 | Nc1cc(S(=O)(=O)c2ccc(OC(F)(F)F)cc2)cnc1C(=O)NNC(=O)CO [Compound 287, 3-amino-N′-(hydroxyacetyl)-5-{[4-(trifluoromethoxy)phenyl]sulfonyl}pyridine-2-carbohydrazide] | 24.3% |  | 83.4% | 256 nM
9 | C[C@H](O)CNC(=O)c1nc(OCCN(C)C)c(S(=O)(=O)c2ccc(OC(F)(F)F)cc2)cc1N [Compound 289, 3-amino-6-[2-(dimethylamino)ethoxy]-N-[(2S)-2-hydroxypropyl]-5-{[4-(trifluoromethoxy)phenyl]sulfonyl}pyridine-2-carboxamide] | 31.0% |  | 97.1% | 245 nM
10 | C[C@H](O)CNC(=O)c1nc(C2CC2)c(S(=O)(=O)c2ccc(OC(F)(F)F)cc2)cc1N [Compound 290, 3-amino-6-cyclopropyl-N-[(2S)-2-hydroxypropyl]-5-{[4-(trifluoromethoxy)phenyl]sulfonyl}pyridine-2-carboxamide] | 73.2% | 473 nM | 88.2% | 3 nM
11 | Nc1cc(S(=O)(=O)c2ccc(C(F)(F)F)cc2)cnc1C(=O)NC1(CO)CC1 [Compound 292, 3-amino-N-[1-(hydroxymethyl)cyclopropyl]-5-{[4-(trifluoromethyl)phenyl]sulfonyl}pyridine-2-carboxamide] | 28.5% | > 10000 nM | 72.4% | 263 nM
12 | CC1(F)CN(C(=O)c2ncc(S(=O)(=O)c3ccc(C(F)(F)F)cc3)cc2N)C1 [Compound 294, (3-amino-5-{[4-(trifluoromethyl)phenyl]sulfonyl}pyridin-2-yl)(3-fluoro-3-methylazetidin-1-yl)methanone] | 104.0% | 967 nM | 97.5% | 9.6 nM
13 | NC(=O)c1ncc(S(=O)(=O)c2ccc(OC(F)(F)F)cc2)cc1N [Compound 297, 3-amino-5-{[4-(trifluoromethoxy)phenyl]sulfonyl}pyridine-2-carboxamide] | 85% | 518 nM | 109% | 53 nM

Next, values leading:

Row | % Activation (CFTR G551D mutant) | EC50 (CFTR G551D mutant) | % Activation (CFTR ΔF508 mutant) | EC50 (CFTR ΔF508 mutant) | Compound
14 | 69.5% | > 3330 nM | 111.0% | 6.9 nM | C[C@H](O)CNC(=O)c1nc(C2CC2)c(S(=O)(=O)c2ccc(F)cc2)cc1N [Compound 274, 3-amino-6-cyclopropyl-5-[(4-fluorophenyl)sulfonyl]-N-[(2S)-2-hydroxypropyl]pyridine-2-carboxamide]
15 | 13.7% | > 10000 nM | 108.0% | 109 nM | COCC(O)CNC(=O)c1ncc(S(=O)(=O)N2CCC[C@@H]2C)cc1N (stereo partly drawn) [Compound 276, 3-amino-N-(2-hydroxy-3-methoxypropyl)-5-{[(2S)-2-methylpyrrolidin-1-yl]sulfonyl}pyridine-2-carboxamide]
16 | 0.8% | > 10000 nM | 65.5% | > 667 nM | COCCN(C)S(=O)(=O)c1cnc(C(=O)NC[C@H](C)O)c(N)c1 [Compound 277, 3-amino-N-[(2S)-2-hydroxypropyl]-5-[(2-methoxyethyl)(methyl)sulfamoyl]pyridine-2-carboxamide]
17 | 21.3% | > 10000 nM | 105.0% | 44.1 nM | C[C@H](O)CNC(=O)c1ncc(S(=O)(=O)N(C)C2CCC2)cc1N [Compound 278, 3-amino-5-[cyclobutyl(methyl)sulfamoyl]-N-[(2S)-2-hydroxypropyl]pyridine-2-carboxamide]
18 | 1.8% | > 10000 nM | 47.0% | > 667 nM | C[C@H]1CCCN1S(=O)(=O)c1cnc(C(=O)NCc2nccc(=O)[nH]2)c(N)c1 [Compound 282, 3-amino-5-{[(2S)-2-methylpyrrolidin-1-yl]sulfonyl}-N-[(6-oxo-1,6-dihydropyrimidin-2-yl)methyl]pyridine-2-carboxamide]
19 | 67.0% | 1620 nM | 95.1% | 6.3 nM | C[C@H](O)CNC(=O)c1nc(Oc2cccc(F)c2)c(S(=O)(=O)c2ccc(OC(F)(F)F)cc2)cc1N [Compound 284, 3-amino-6-(3-fluorophenoxy)-N-[(2S)-2-hydroxypropyl]-5-{[4-(trifluoromethoxy)phenyl]sulfonyl}pyridine-2-carboxamide]
20 | 78.3% | > 3330 nM | 109.0% | 8.7 nM | COCCOc1nc(C(=O)NC[C@H](C)O)c(N)cc1S(=O)(=O)c1ccc(OC(F)(F)F)cc1 [Compound 288, 3-amino-N-[(2S)-2-hydroxypropyl]-6-(2-methoxyethoxy)-5-{[4-(trifluoromethoxy)phenyl]sulfonyl}pyridine-2-carboxamide]
21 | 40.8% | > 3330 nM | 87.8% | 135 nM | CO[C@H]1CCC[C@@H]1NC(=O)c1ncc(S(=O)(=O)c2ccc(C(F)(F)F)cc2)cc1N [Compound 293, 3-amino-N-[(1S,2S)-2-methoxycyclopentyl]-5-{[4-(trifluoromethyl)phenyl]sulfonyl}pyridine-2-carboxamide]
22 | 92.7% | 1970 nM | 102.3% | 51.3 nM | Nc1cc(S(=O)(=O)c2ccc(C(F)(F)F)cc2)cnc1C(=O)N1CC2(CCCOC2)C1 [Compound 295, (3-amino-5-{[4-(trifluoromethyl)phenyl]sulfonyl}pyridin-2-yl)(6-oxa-2-azaspiro[3.5]non-2-yl)methanone]
